# Source: patent US20060123501A1, “Method for treating inflammatory disorders” (priority 2004, published 2006)
# Like-named read-outs stand apart in the source and are kept apart here.
# Legend:
# [1] = tested on: cIAP2−/− and control mice
# Description: In addition, we exposed cIAP2^−/− mice to a second mode of LPS-induced toxicity, where treatment with D-galactosamine (DGLBN) sensitized mice to endotoxic shock.
# [2] = tested on: cIAP2−/− mice and littermate controls; settings: for LD100: i.p.
# Description: Mice were injected IP with a range of indicated LPS doses (n=15).
# Schoemaker et al. proposed an important role of cIAP2 in LPS-induced death of liver cells sensitized to endotoxic shock by D-galactosamine (DGLN) (22). […] Thus to investigate the role of cIAP2 in an innate immune response, the cIAP2^−/− mice were treated with LPS.
# Adult 4-6 week old mice (n=6 to 10) were injected intraperitoneally (i.p.) with a range of LPS doses (10 to 200 mg LPSD/kg) from E. coli (Sigma) in a total volume of 0.2 ml nonpyrogenic saline.
# [3] = tested on: xiap, ciap1 and ciap2 mRNA; experiment: iap mRNA levels of LPS-treated peritoneal macrophages (quantitative RT-PCR); assay type: cell-based, mouse
# Description: The iap mRNA levels of LPS-treated peritoneal macrophages derived from wild type C57Bl/6 mice relative to untreated controls were assayed. (A) xiap, ciap1, and ciap2 message levels of macrophages exposed to a range of LPS doses relative to untreated controls. (B) ciap2 mRNA message of macrophages exposed to LPS was assayed over 24 h. Results are mean±s.d. (n=5, average of triplicate wells per mouse, P<0.05).
# LPS-induced activation of macrophages causes the upregulation of a multitude of genes, including the production/release of inflammatory mediators, the upregulation of cell surface receptors and of cell survival proteins. […] Therefore, the iap mRNA levels of LPS-treated macrophages, derived from the peritoneal cavity, were assayed relative to untreated controls. Peritoneal macrophages were cultured at 10^5 cell/well (96 well, flat bottom plate) and exposed to varying concentrations of LPS for 18 hours. […] In contrast, ciap2 levels increased dramatically, up to 30 fold above untreated controls (P<0.01 for all LPS doses) (FIG. 2A). The innate immune system provides protection within the first minutes to hours after a pathogenic challenge.
# mRNA was extracted from mouse embryonic fibroblasts or peritoneal macrophages using Qiagen Rneasy 96 wells extraction kit (Qiagen, Mississauga, ON, Canada) and run on a TaqMan® instrument (Perkin-Elmer, Foster City, Calif.) using specific DNA probes for murine xiap, ciap1 and 2 and the TaqMan® EZ RT-PCR kit (Qiagen, Mississauga, ON, Canada).
# splenic B cells = experiment: Proliferation of splenic B cells cultured with LPS; assay type: cell-based, mouse; settings: cIAP2−/− splenic B cells; LPS 0.1 to 100 μg/ml
# Description: (§1) Spleen- and peritoneal-derived macrophage cell count numbers are shown (A) for cIAP2^−/−, cIAP2^+/− and cIAP2^+/+ mice (n=10). Both cIAP2^−/− and littermate control-derived macrophages stained for the LPS binding surface receptor CD14 (B). The proliferation of B cells for cIAP2^−/− mice and littermate controls of cIAP2^+/+ after culturing with the indicated range of LPS doses (n=6) (C). Cultured macrophages from cIAP2^−/− or littermate control cIAP2^+/+ mice were exposed to LPS for 10 h and subsequently IL-1β (D) or TNF-α (E) levels were measured by ELISA (n=6). Additionally, macrophages were exposed to the indicated range of LPS doses for 24 h and IL-1β (F) or TNF-α (G) levels were determined (n=6). Results are mean±s.d. in triplicate per mouse, P<0.01
# This dysfunction may be correlated to a reduced initial number of macrophages, to a block in the LPS-induced signaling pathway, or to an increased apoptotic susceptibility of the cIAP2^−/− macrophages. […] The cIAP2^−/− mice and wild-type macrophages also stained similarly for the LPS-binding receptor, CD14 (FIG. 4B).
# peritoneal macrophages = experiment: TNF-α and IL-1β production of cultured peritoneal macrophages exposed to LPS (ELISA); assay type: cell-based, mouse; settings: cIAP2−/− peritoneal macrophages; LPS 0.1 to 1000 ng/ml; 10 and 24 h
# Description: as §1
# This dysfunction may be correlated to a reduced initial number of macrophages, to a block in the LPS-induced signaling pathway, or to an increased apoptotic susceptibility of the cIAP2^−/− macrophages. […]
# T and B cells were isolated from mouse lymphoid tissue (spleen) by first mincing and then pressing the tissue through a 10 μm metal mesh and were then counted by using trypan blue exclusion method. […] The resulting cells were then counted by using typan blue exclusion and Diff Quik™ Stain Kit (IMEB INC, San Marcos, Calif.). […] Concentrations of TNF-α and IL-1β, in primary tissue culture supernatants were determined by ELISA kit (R&D Systems).
# [4] = wild type peritoneal macrophages, LPS 0.1 ng/ml to 10 mg/ml, 18 hours
substance,measurement,setting,value
lipopolysaccharide [LPS],Time to demise of the mice,"[1]; LPS with DGLN, cIAP2−/− mice and control littermates",< 3 h
same,Survival,"[1]; cIAP2+/+ mice, LPS 0.5 μg/kg with D-galactosamine 0.6 g/kg i.p.",6/6
same,Survival,"[1]; cIAP2+/+ mice, LPS 1 μg/kg with D-galactosamine 0.6 g/kg i.p.",6/6
same,Survival,"[1]; cIAP2+/+ mice, LPS 5 μg/kg with D-galactosamine 0.6 g/kg i.p.",2/6
same,Survival,"[1]; cIAP2+/+ mice, LPS 10 μg/kg with D-galactosamine 0.6 g/kg i.p.",0/6
same,Survival,"[1]; cIAP2+/+ mice, LPS 20 μg/kg with D-galactosamine 0.6 g/kg i.p.",0/6
same,Survival,"[1]; cIAP2−/− mice, LPS 0.5 μg/kg with D-galactosamine 0.6 g/kg i.p.",6/6
same,Survival,"[1]; cIAP2−/− mice, LPS 1 μg/kg with D-galactosamine 0.6 g/kg i.p.",6/6
same,Survival,"[1]; cIAP2−/− mice, LPS 5 μg/kg with D-galactosamine 0.6 g/kg i.p.",2/6
same,Survival,"[1]; cIAP2−/− mice, LPS 10 μg/kg with D-galactosamine 0.6 g/kg i.p.",0/6
same,Survival,"[1]; cIAP2−/− mice, LPS 20 μg/kg with D-galactosamine 0.6 g/kg i.p.",0/6
same,Survival,"[2]; all littermate controls, LPS dose of 60 mg/kg and above",did not survive past the first day
same,Survival time,"[2]; cIAP2−/− mice, LPS dose of 200 mg LPS/kg",2 to 7 days
same,LD100,[2]; cIAP2−/− mice,100 mg LPS/kg
same,Time within which all died,"[2]; control littermates, 40 mg LPS/kg",≤ 24 h
same,LD100,[2]; control littermates,35 mg LPS/kg
same,LD100 of cIAP2−/− mice compared to that of control littermates,[2]; i.p. LPS,approximately 3 ×
same,ciap2 mRNA upregulation above untreated controls,"[3]; 100 ng/1 ml LPS, within 1 hour, maintained for 24 hours",> 20 fold
same,increase of ciap2 message above untreated controls,"[3]; peritoneal-derived macrophages, in less than one hour",2o
same,Xiap and ciap1 message levels,[3]; [4],remained relatively unchanged
same,ciap2 mRNA level increase above untreated controls,[3]; [4],up to 30 fold
same,B cell proliferation in response to LPS,splenic B cells,proliferated normally
same,TNF-α and IL-1β levels relative to littermate controls,peritoneal macrophages,generated comparable levels of TNF-α and IL-1β
